Measurements published in PMC3364214, “Role of Operon aaoSo-mutT in Antioxidant Defense in Streptococcus oligofermentans” (PLoS ONE, 2012).

Molecular target: T1, MutT (Streptococcus cristatus, UniProt A0ABN4B3E2)
T1 construct: gene I872_01330; mutT (453 bp fragment) in NcoI-XhoI of pET-28a, His6-tag fusion (C-terminal by the primers), E. coli BL21(DE3) pLysS, Histrap purified; tag removal not mentioned
T1 sequence (A0ABN4B3E2 1-151): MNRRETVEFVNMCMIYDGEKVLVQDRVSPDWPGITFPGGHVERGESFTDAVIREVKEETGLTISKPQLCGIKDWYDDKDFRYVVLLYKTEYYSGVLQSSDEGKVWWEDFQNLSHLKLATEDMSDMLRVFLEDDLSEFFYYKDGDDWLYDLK
Assay: HPLC of 8-oxo-dGTP degradation (UV […] nm)
Format: biochemical
Details: 100 uM substrate, 100 nM MutT, 5 mM MgCl2, 100 mM Tris-HCl pH 9.0, 5% glycerol, 37 C, 20 min

Nc1nc2c([nH]c(=O)n2[C@H]2C[C@H](O)[C@@H](COP(=O)(O)OP(=O)(O)OP(=O)(O)O)O2)c(=O)[nH]1 [8-oxo-dGTP]
HPLC of 8-oxo-dGTP degradation (UV 293 nm): reduction of 8-oxo-dGTP levels was detected in the reaction mixture by HPLC
